For test [1], the system named is human umbilical vein endothelial HUVEC. Put plainly: MTT antiproliferative assay, HUVEC. The conditions noted are these: Homo sapiens, HUVEC, 48 h, 0–50 μM, read-out: Antiproliferative activity IC50 ± SEM, HUVEC. It is filed as cell-based. As to the method: (§1) The in vitro antiproliferative activity of 33 TMPH compounds was evaluated by MTT assay ([Medica et al., 2022]). Five types of TNBC-related cell lines (human breast cancer MCF-7 and MDA-MB-231, mouse breast cancer 4T1, mouse fibroblast L929, and human umbilical vein endothelial HUVEC cell lines) were used. The cell lines were obtained from the Shanghai Institute of Biochemistry and Cell Biology of the Chinese Academy of Sciences (Shanghai, China). The cell lines were cultured in DMEM supplemented with 1% penicillin–streptomycin solution (100×) and 10% FBS at 37°C under a humid atmosphere containing 5% CO2. After cell passage, cryopreservation, and resuscitation, the growth-inhibitory effects against the five cell lines were determined by MTT assay. The 33 TMPH compounds and the reference control drug cisplatin were dissolved in 0.1% DMSO solution. The cell lines were maintained in 96-well plates and subjected to each test compound (0–50 μM) at 37°C for 48 h. After treatment with 1 mg/ml MTT solution for 4 h, the formazan crystals were dissolved in each well. A microplate reader (Varioskan Flash 3001, Thermo Scientific) was used to determine the cell viability at 490 nm, and each experiment was repeated four times. The collected data were expressed as the mean ± SEM. The inhibitory concentration of the 34 compounds at 50% (IC50) was calculated via concentration–inhibition relationship regression by SPSS software.
A general note: Tetrazolium assays rely on reduction of a dye to a coloured formazan, in cell work by metabolically active cells.

Another test concerns mouse fibroblast L929. Put plainly: MTT antiproliferative assay, L929. It counts as cell-based. The conditions noted are these: Mus musculus, L929, 48 h, 0–50 μM, read-out: Antiproliferative activity IC50 ± SEM, L929. As to the method: as §1
Test [2] has as its system MCF-7, MDA-MB-231, 4T1, L929 and HUVEC cell lines. Put plainly: MTT antiproliferative assay, statements over all five tested cell lines. The conditions noted are these: range over all five tested cell lines, read-out: IC50 values ranging over the tested cell lines. It counts as cell-based. Here is the method:
as §1

Test [3] concerns human breast cancer MDA-MB-231. Put plainly: MTT antiproliferative assay, MDA-MB-231. It counts as cell-based. The conditions noted are these: for IC50: Homo sapiens, MDA-MB-231, MTT, 48 h, 0–50 μM, read-out: Antiproliferative activity IC50 ± SEM, MDA-MB-231; for SI, selectivity index: SI = IC50 (L929)/IC50 (MDA-MB-231). Here is the method: as §1
The test system of the next test is mouse breast cancer 4T1. Nature of the test: MTT antiproliferative assay, 4T1. It is filed as cell-based. The conditions noted are these: Mus musculus, 48 h, 0–50 μM, read-out: Antiproliferative activity IC50 ± SEM, 4T1. As to the method:
as §1

Test [4] relates to human breast cancer MCF-7. Put plainly: MTT antiproliferative assay, MCF-7. It counts as cell-based. The conditions noted are these: Homo sapiens, MCF7, 48 h, 0–50 μM, read-out: Antiproliferative activity IC50 ± SEM, MCF-7. Here is the method: as §1
For test [5], the system named is MDA-MB-231 cells. Put plainly: Clonal formation assay of MDA-MB-231 cells. It counts as cell-based, human. The conditions noted are these: 0.5, 1.0 and 2.0 μM for 10 days. Here is the method:
Human breast cancer MDA-MB-231 cells were cultured in a six-well plate with 1,500 cells per well and incubated for 24 h at 37°C under a humid atmosphere containing 5% CO2. Then, the MDA-MB-231 cells were incubated with compound 12–9 at final concentrations of 0, 0.5, 1.0, and 2.0 μM for 10 days. The treated cells were washed with PBS and fixed with 4% paraformaldehyde for 15 min at room temperature. Then, the end product of the cell colonies was visualized by staining with 0.1% crystal violet for 10 min. The images were photographed using a handy camera, and the number of cell colonies was assessed using open Image J software (National Institutes of Health). Each experiment was repeated three times. A group of >50 cells was defined as one colony formation.

The subject of test [6] is MDA-MB-231 cells. Nature of the test: Hoechst 33 342 staining of MDA-MB-231 cells. It is filed as cell-based, human. The settings on record: 1.0 μM, 48 h. As to the method: The induction of apoptosis by compound 12–9 was visually evaluated in MDA-MB-231 cells by Hoechst 33 342 staining. The test cells were transferred to six-well plates at a density of 1 × 10^5 cells. […] Then, the MDA-MB-231 cells were stained with Hoechst 33 342 solution (10 μg/ml in the culture medium, Beyotime Institute of Biotechnology, Shanghai, China) at 37°C in a dark room for 20 min after incubation with the test compound 12–9. The cells were then washed twice with a serum-free medium to remove the leftover dye. The apoptotic cells stained by Hoechst 33 342 were imaged using CLSM (Carl-Zeiss LSM 710).

The subject of test [7] is MDA-MB-231 cells. Nature of the test: Apoptosis analysis by annexin V-FITC/PI staining (flow cytometry). It is filed as cell-based, human. The conditions noted are these: 48 h; for apoptotic ratio: control 13.7%. Here is the method: Apoptosis induced by TMPH compound 12–9 was evaluated by annexin V-FITC/PI staining. Briefly, MDA-MB-231 cells in the logarithmic growth phase were cultured in a six-well plate and incubated for 24 h at 37°C under a humid atmosphere containing 5% CO2. […] The incubated cells were washed twice with PBS, digested by trypsin, and centrifuged at 1,000 rpm for 5 min. The collected MDA-MB-231 cells were transferred to a 1.5-ml tube and resuspended in a solution of 200 μl of annexin V-FITC and 5 μl of PI. After incubation in a dark environment (covered with aluminum foil) for 15 min at room temperature, the collected cells were evaluated by flow cytometry (CyFlow®Cube 6, Sysmex). The apoptosis analysis data were shown as a pseudo color map and analyzed by FlowJo software.
For orientation: A flow cytometer gives signals particle by particle.

This note sets out measurements from publication PMC9358002, “Synthesis and Discovery of Ligustrazine–Heterocycle Derivatives as Antitumor Agents” (Frontiers in Chemistry, 2022).

Turning to `Cc1nc(C)c(C(=O)NCCCCCCCCCCNC(=O)c2ccc3cc[nH]c3c2)nc1C` [10–9], the IC50 was 9.63 ± 0.53 µM in [1]; 7.37 ± 0.57 µM in the test on mouse fibroblast L929; 1.61 to 19.5 µM in test [2]; 6.01 ± 0.11 µM in test [3]; 3.12 ± 0.14 µM in the test with mouse breast cancer 4T1; 3.37 ± 0.19 µM in test [4]. Also, in test [3], the “SI, selectivity index” value was found to be 1.23.

For the compound `Cc1nc(C)c(C(=O)NCCCCCCCCCCNC(=O)c2ccc3ccccc3c2)nc1C` [10–13], the IC50 in test [1] is 10.5 ± 1.24 µM; with mouse fibroblast L929, 12.64 ± 0.12 µM; in [2], 1.61 to 19.5 µM; in test [3], 4.6 ± 0.29 µM; in the test with mouse breast cancer 4T1, 9.88 ± 0.22 µM; in test [4], 3.09 ± 0.13 µM. The “SI, selectivity index” value in test [3] is 2.75.

On to `Cc1nc(C)c(C(=O)NCCCCCCCCCCCCNC(=O)C=Cc2ccccc2)nc1C` [12–1], for which the IC50 in [1] is 13.2 ± 1.12 µM; in the test with mouse fibroblast L929 it was 4.75 ± 0.26 µM; in test [2], 1.61 to 19.5 µM; in test [3], 2.78 ± 0.37 µM; with mouse breast cancer 4T1, 2.66 ± 0.05 µM; in test [4] it was 1.95 ± 0.06 µM. For the same compound, in test [3], the “SI, selectivity index” value is listed as 1.71.

In the case of `Cc1nc(C)c(C(=O)NCCCCCCCCCCCCNC(=O)c2cc3ccccc3o2)nc1C` [12–2], the concentration for half-maximal inhibition (IC50) in test [1] is 11 ± 0.68 µM; in the test with mouse fibroblast L929, 3.78 ± 0.14 µM; in test [2], 1.61 to 19.5 µM; in [3], 3.38 ± 0.12 µM; in the test on mouse breast cancer 4T1, 3.97 ± 0.01 µM; in test [4], 2.71 ± 0.07 µM. In [3], the “SI, selectivity index” value amounted to 1.12.

Regarding `Cc1nc(C)c(C(=O)NCCCCCCCCCCCCNC(=O)c2cc3ccccc3s2)nc1C` [12–3], the IC50 in test [1] is 7.86 ± 0.01 µM; in the test on mouse fibroblast L929, 7.65 ± 0.06 µM; in test [2], 1.61 to 19.5 µM; in [3], 2.12 ± 0.06 µM; in the test on mouse breast cancer 4T1, 5.13 ± 0.28 µM; in test [4], 3.26 ± 0.16 µM. In [3], the “SI, selectivity index” value turned out to be 3.61.

As for `Cc1nc(C)c(C(=O)NCCCCCCCCCCCCNC(=O)c2cnc3ccccc3c2)nc1C` [12–5], the 50% inhibitory concentration (IC50) is 11.4 ± 0.44 µM in test [1]; 4.18 ± 0.05 µM in the test on mouse fibroblast L929; 1.61 to 19.5 µM in test [2]; 2.39 ± 0.12 µM in test [3]; 3.5 ± 0.06 µM in the test on mouse breast cancer 4T1; 1.36 ± 0.06 µM in [4]. The “SI, selectivity index” value in [3] is 1.75.

`Cc1nc(C)c(C(=O)NCCCCCCCCCCCCNC(=O)c2ccc3ncccc3c2)nc1C` [12–6]: the IC50 in test [1] was 7.03 ± 0.05 µM; with mouse fibroblast L929 it was 5.35 ± 0.17 µM; in test [2], 1.61 to 19.5 µM; in test [3], 1.98 ± 0.15 µM; in the test on mouse breast cancer 4T1 it was 4.18 ± 0.09 µM; in test [4] it was 2.04 ± 0.03 µM. In addition, in test [3], the “SI, selectivity index” value was 2.70.

Take `Cc1nc(C)c(C(=O)NCCCCCCCCCCCCNC(=O)c2ccc3cc[nH]c3c2)nc1C` [12–9]: the IC50 in test [1] was 3.82 ± 0.24 µM; in the test on mouse fibroblast L929 it was 3.16 ± 0.13 µM; in test [2], 1.61 to 19.5 µM; in test [3], 0.84 ± 0.02 µM; in the test with mouse breast cancer 4T1 it was 1.16 ± 0.18 µM; in test [4], 1.11 ± 0.15 µM. Besides, the “colony formation versus untreated control” value in the test on MDA-MB-231 cells [5] was “significantly fewer and smaller”. Moreover, in [3], the “SI, selectivity index” value is on record as 3.76. Besides, the “apoptotic morphology, Hoechst 33 342 staining” value in the test with MDA-MB-231 cells [6] is “appeared shrunken and showed strong blue fluorescence”. In addition, the “Q1, necrotic cells (annexin V−/PI+)” value with MDA-MB-231 cells [7] (0.5 μM) is listed as 0.20; in the test on MDA-MB-231 cells [7] (1.0 μM), 0.37; with MDA-MB-231 cells [7] (2.0 μM), 1.03. For the same compound, the results for the “Q2, late apoptotic or necrotic cells (annexin V+/PI+)” value in the test with MDA-MB-231 cells [7] (0.5 μM), with MDA-MB-231 cells [7] (1.0 μM) and in the test on MDA-MB-231 cells [7] (2.0 μM) were 15.2, 24.8 and 35.3, respectively. Besides, the “Q3, early apoptotic cells (annexin V+/PI−)” value with MDA-MB-231 cells [7] (0.5 μM) was found to be 8.76; in the test on MDA-MB-231 cells [7] (1.0 μM), 7.84; with MDA-MB-231 cells [7] (2.0 μM) it was 11.6. Besides, the “Q4, living cells (annexin V−/PI−)” value with MDA-MB-231 cells [7] (0.5 μM) worked out at 75.9; in the test on MDA-MB-231 cells [7] (1.0 μM), 67.0; in the test with MDA-MB-231 cells [7] (2.0 μM) it was 52.1. In addition, the apoptotic ratio in the test on MDA-MB-231 cells [7] (0.5 μM) is reported as 23.96%; with MDA-MB-231 cells [7] (1.0 μM), 32.64%; in the test with MDA-MB-231 cells [7] (2.0 μM), 46.9%.

For the compound `Cc1nc(C)c(C(=O)NCCCCCCCCCCCCNC(=O)C=Cc2ccc(Cl)cc2)nc1C` [12–10], the IC50 in [1] was 12.37 ± 0.09 µM; in the test on mouse fibroblast L929, 3.82 ± 0.07 µM; in test [2], 1.61 to 19.5 µM; in test [3], 2.42 ± 0.06 µM; in the test on mouse breast cancer 4T1, 1.63 ± 0.03 µM; in test [4] it was 2.09 ± 0.06 µM. Besides, the “SI, selectivity index” value in test [3] is listed as 1.58.

With `COc1cc(C=CC(=O)NCCCCCCCCCCCCNC(=O)c2nc(C)c(C)nc2C)cc(OC)c1OC` [12–12], the IC50 in test [1] is 12.2 ± 0.2 µM; in the test on mouse fibroblast L929, 18.9 ± 0.44 µM; in [2], 1.61 to 19.5 µM; in test [3], 1.64 ± 0.12 µM; in the test with mouse breast cancer 4T1, 2.69 ± 0.04 µM; in test [4], 2.21 ± 0.15 µM. Besides, the “SI, selectivity index” value in [3] came out at 11.50.

For the compound `Cc1nc(C)c(C(=O)NCCCCCCCCCCCCNC(=O)c2ccc3ccccc3c2)nc1C` [12–13], the IC50 in [1] was 10.7 ± 1.06 µM; with mouse fibroblast L929 it was 8.89 ± 0.12 µM; in [2], 1.61 to 19.5 µM; in test [3], 5.01 ± 0.16 µM; in the test with mouse breast cancer 4T1 it was 4.76 ± 0.45 µM; in test [4], 1.61 ± 0.08 µM. For the same compound, the “SI, selectivity index” value in [3] was found to be 1.77.

A word on the IC50: it is the midpoint of a concentration-inhibition curve.
